Where “and” joins values, the source holds several entries; their conditions need not be identical. Identical values can stand only once. Counter-ions that a name gives are not always drawn. Like-named read-outs stand apart in the source and are kept apart here.
Key:
[1] = test system: multidrug resistance-associated proteins (MRPs), such as MRP1; conditions: cited from earlier work
[2] = Tariquidar or elacridar concentrations in plasma and brain by LC/MS; type: in vivo; conditions: rat, 5 mg/kg; for concentration at 180 min: intravenous
[3] = molecular target: T1, P-glycoprotein (P-gp) at the blood-brain barrier (Rattus norvegicus, UniProt Q6PSM0); conditions: for DV (Logan) of VPM / DV of VPM (2T4K model) / K1 of VPM (2T4K model) / k2 of VPM (2T4K model) / k3 of VPM (2T4K model) / k4 of VPM (2T4K model): whole brain, PET 120 min after, mean±SD
[4] = molecular target: T1, P-glycoprotein (P-gp) at the blood-brain barrier; test: in vivo
[5] = test system: P-glycoprotein (P-gp) at the blood-brain barrier; type: in vivo, rat; conditions: tariquidar 15 mg/kg or elacridar 5 mg/kg at 60 min after radiotracer injection
[6] = Hill fit of whole-brain DV vs inhibitor dose

T1 sequence (Q6PSM0 1-1272): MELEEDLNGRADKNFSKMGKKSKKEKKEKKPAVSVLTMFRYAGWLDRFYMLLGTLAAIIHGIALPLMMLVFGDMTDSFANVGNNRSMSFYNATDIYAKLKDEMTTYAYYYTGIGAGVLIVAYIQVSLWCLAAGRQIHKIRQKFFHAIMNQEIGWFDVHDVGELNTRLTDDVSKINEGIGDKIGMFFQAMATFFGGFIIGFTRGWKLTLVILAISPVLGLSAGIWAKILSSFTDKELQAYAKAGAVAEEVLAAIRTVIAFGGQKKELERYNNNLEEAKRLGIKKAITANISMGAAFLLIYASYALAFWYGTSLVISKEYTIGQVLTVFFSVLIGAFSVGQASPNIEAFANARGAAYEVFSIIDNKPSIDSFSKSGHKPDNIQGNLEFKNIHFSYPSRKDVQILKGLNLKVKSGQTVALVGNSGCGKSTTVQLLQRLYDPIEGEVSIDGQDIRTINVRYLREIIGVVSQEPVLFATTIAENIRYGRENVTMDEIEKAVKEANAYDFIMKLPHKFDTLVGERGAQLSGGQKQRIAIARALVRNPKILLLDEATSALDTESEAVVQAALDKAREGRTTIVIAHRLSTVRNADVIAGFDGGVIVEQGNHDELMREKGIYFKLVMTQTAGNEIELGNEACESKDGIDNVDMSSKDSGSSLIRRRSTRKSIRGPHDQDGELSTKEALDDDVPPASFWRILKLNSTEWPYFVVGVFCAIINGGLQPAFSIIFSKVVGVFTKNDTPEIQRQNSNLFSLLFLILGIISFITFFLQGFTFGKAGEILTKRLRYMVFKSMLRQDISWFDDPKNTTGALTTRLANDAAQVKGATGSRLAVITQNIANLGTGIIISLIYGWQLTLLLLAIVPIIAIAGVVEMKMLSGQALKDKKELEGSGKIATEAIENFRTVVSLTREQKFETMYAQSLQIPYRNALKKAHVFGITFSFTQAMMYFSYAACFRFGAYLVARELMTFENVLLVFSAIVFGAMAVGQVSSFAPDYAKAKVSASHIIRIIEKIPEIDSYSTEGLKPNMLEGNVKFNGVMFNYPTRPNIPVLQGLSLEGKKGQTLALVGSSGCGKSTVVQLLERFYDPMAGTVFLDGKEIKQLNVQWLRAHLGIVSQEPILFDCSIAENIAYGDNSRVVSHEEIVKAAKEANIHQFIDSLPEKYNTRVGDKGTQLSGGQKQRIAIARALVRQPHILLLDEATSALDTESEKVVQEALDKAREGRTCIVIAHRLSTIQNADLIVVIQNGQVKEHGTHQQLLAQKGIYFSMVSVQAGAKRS

## COc1cc2c(cc1OC)CN(CCc1ccc(NC(=O)c3cccc4c(=O)c5cccc(OC)c5[nH]c34)cc1)CC2 [elacridar, elacridar hydrochloride]
[1]
  Inhibition of MRPs, such as MRP1: do not inhibit
[2]; brain
  concentration at 180 min: 5190 ± 1420 ng/mL
[2]; brain, iv
  Kp at 180 min: 16.8 ± 5.8
[2]; plasma
  concentration at 180 min: 316 ± 61 ng/mL
[3]; [6]
  DVmax (maximum effect): 11.4±0.7 ml·ml^−1
  Hill factor n: 5.2±2.8
[3]; at maximum effective doses, rat brain
  Maximum increase in VPM brain distribution (DV) over baseline: up to 11 fold
[3]; inhibitor 0.3 mg/kg
  Whole-brain DV increase (factor) as compared to baseline scans: 1.0±0.6
[3]; inhibitor 1 mg/kg
  Whole-brain DV increase (factor) as compared to baseline scans: 3.5±1.5
[3]; inhibitor 2 mg/kg
  Whole-brain DV increase (factor) as compared to baseline scans: 9.4±1.5
[3]; inhibitor 5 mg/kg
  Whole-brain DV increase (factor) as compared to baseline scans: 8.9±1.4
[3]; inhibitor 7.5 mg/kg
  Whole-brain DV increase (factor) as compared to baseline scans: 11.3±0.2
[3]; inhibitor 0.3 mg/kg i.v.
  DV (Logan) of VPM: 1.22±0.51 (2.9) ml·ml^−1
  DV of VPM (2T4K model): 1.28±0.54 (3.1) ml·ml^−1
  K1 of VPM (2T4K model): 0.13±0.10 (16.5) ml·ml^−1·min^−1
  k2 of VPM (2T4K model): 0.29±0.06 (36.5) min^−1
  k3 of VPM (2T4K model): 0.14±0.02 (41.4) min^−1
  k4 of VPM (2T4K model): 0.07±0.01 (16.7) min^−1
[3]; inhibitor 1 mg/kg i.v.
  DV (Logan) of VPM: 4.47±1.51 (0.9) ml·ml^−1
  DV of VPM (2T4K model): 4.49±1.51 (2.9) ml·ml^−1
  K1 of VPM (2T4K model): 0.57±0.19 (18.1) ml·ml^−1·min^−1
  k2 of VPM (2T4K model): 0.33±0.10 (78.9) min^−1
  k3 of VPM (2T4K model): 0.29±0.11 (93.2) min^−1
  k4 of VPM (2T4K model): 0.19±0.06 (33.3) min^−1
[3]; inhibitor 2 mg/kg i.v.
  DV (Logan) of VPM: 11.72±1.47 (0.6) ml·ml^−1
  DV of VPM (2T4K model): 12.00±1.49 (2.4) ml·ml^−1
  K1 of VPM (2T4K model): 0.92±0.16 (7.2) ml·ml^−1·min^−1
  k2 of VPM (2T4K model): 0.18±0.06 (42.2) min^−1
  k3 of VPM (2T4K model): 0.29±0.09 (68.5) min^−1
  k4 of VPM (2T4K model): 0.22±0.03 (21.1) min^−1
[3]; inhibitor 5 mg/kg i.v.
  DV (Logan) of VPM: 11.16±1.44 (1.1) ml·ml^−1
  DV of VPM (2T4K model): 11.40±1.45 (3.8) ml·ml^−1
  K1 of VPM (2T4K model): 0.93±0.26 (17.0) ml·ml^−1·min^−1
  k2 of VPM (2T4K model): 0.22±0.06 (58.8) min^−1
  k3 of VPM (2T4K model): 0.28±0.05 (79.7) min^−1
  k4 of VPM (2T4K model): 0.16±0.01 (35.4) min^−1
[3]; inhibitor 7.5 mg/kg i.v.
  DV (Logan) of VPM: 14.20±0.13 (0.4) ml·ml^−1
  DV of VPM (2T4K model): 14.55±0.06 (2.6) ml·ml^−1
  K1 of VPM (2T4K model): 0.98±0.08 (6.4) ml·ml^−1·min^−1
  k2 of VPM (2T4K model): 0.15±0.02 (43.5) min^−1
  k3 of VPM (2T4K model): 0.25±0.07 (55.4) min^−1
  k4 of VPM (2T4K model): 0.22±0.04 (30.3) min^−1
[4]
  EC50 at 180 min: 0.115 ± 0.0222 µg/mL
[4]; Sprague-Dawley, iv
  ED50 at 120 min: 1.2 ± 0.1 mg/kg
[5]
  Time of peak VPM brain uptake (maximum effect) after inhibitor injection: 30 ± 5 min and 30 min
